Laboratory results published in patent EP1282725B1, “METHODS OF MODULATING FUNCTIONS OF POLYPEPTIDE GalNAc TRANSFERASES AND OF SCREENING SUBSTANCES THEREFOR” (Glycozym ApS, priority 2000, dated 2001).
Each block holds one molecule with its values, some of them ahead of it.

Key:
[1] = test system: GalNAc-T4; test: Inhibition of the glycosylation dependent (GalNAc-glycopeptide) activity of GalNAc-T4, time-course MALDI-TOF; assay type: biochemical, human
Protocol: (§1) MALDI-TOF time-course in terminal reactions were performed in reactions of 25 µl containing 2.5 nmol acceptor (glyco)peptide, 40 nmol UDP-GalNAc, and 0.4 µg GalNAc-T4. Sampling of reactions (1 µl) were purified by nano-scale reversed-phase chromatography (Poros R3, PerSeptive Biosystem) and applied directly to the probe with matrix (41). The amount of GalNAc-transferase added was adjusted so that the reaction with the appropriate peptide was near completion in six hours. Reactions were incubated at 37°C in a shaker bath. At times 0, 2 hours, and 16 hours a 1 µl aliquot was taken and purified. Mass spectra were acquired on either Voyager-DE mass spectrometer equipped with delayed extraction (Perseptive Biosystem Inc.). The matrix used was 2,5-dihydroxybenzoic acid (10 mg/ml, Hewlett-Packard) dissolved in a 2:1 mixture of 0.1% trifluoroacetic acid in 30 % aqueous acetonitrile (Rathburn Ltd.).
Quantification of purified proteins was done by Coomassie stained SDS-PAGE and titration of immunoreactivity with the monoclonal antibody, UH6(4G2) (8). […] Wild-type GalNAc-T4 and mutant GalNAc-T4, GalNAc-T4^459H, were analysed with unglycosylated peptides (represented by PSGL-1) or GalNAc glycosylated glycopeptides (represented by GalNAc3TAP25V21) in reactions of 25 µl containing 2.5 nmol acceptor (glyco)peptide, 40 nmol UDP-GalNAc, and 0.4 µg GalNAc-T4. Time-course assays were motioned by MALDI-TOF. Sampling of reactions (1 µl) were purified by nano-scale reversed-phase chromatography (Poros R3, PerSeptive Biosystem) and applied directly to the probe with matrix. Evaluation of inhibition of the glycopeptide specificity of wild-type GalNAc-T4 with free sugars was performed to establish if the lectin domain recognized carbohydrate. […] Further, analysis was performed with 10 mM α-D-GalNAc-1-benzyl, αGlcNAc-benzyl, and fully occupied GalNAc-glycopeptide, GalNAc6TAP25, at 5 mM.

[2] = test system: GalNAc-T2; test: Inhibition of GalNAc-T2 activities with Muc2 acceptor substrate; assay type: biochemical, human; conditions: for Activity in the presence of inhibitors: inhibitors 230 mM, Muc2 acceptor
Protocol: (§2) Products were quantified by scintillation counting after chromatography on Dowex-1, octadecyl silica cartridges (Bakerbond), or HPLC (PC3.2/3 or mRPC C2/C18 SC2.1/10 Pharmacia, Smart System). […] Glycopeptides were purified on Supelclean LC-18 columns (1 ml, Supelco), and the number of GalNAc residues incorporated evaluated by MALDI-TOF mass spectrometry. The enzyme sources used were semipurified as previously described by successive sequential ion-exchange chromatographies on Amberlite (IRA95, Sigma) or DEAE Sephacel (Pharmacia), S-Sepharose Fast Flow (Pharmacia), and Mini-S^TM (PC 3.2/3, Pharmacia) using the Smart System (Pharmacia) (28). Secreted GalNAc-T4 was obtained from a stably transfected CHO line ([…]) (8) grown in roller bottles in HAMS F12 supplemented with 10 % Fetal Bovine Serum. The experiments illustrated in Fig. 1 was performed with recombinant secreted GalNAc-T4 obtained from a stably transfected CHO line (8). Experiments illustrated in Figs. 2 and 3 were performed with secreted GalNAc-T4 expressed in High Five cells grown in serum-free medium (8). Structural analysis of glycopeptides were performed by a combination of PFPA (pentafluoropropionic acid) hydrolysis and MALDI-TOF mass spectrometry as previously described (40). Secreted GalNAc-T7 was obtained from infected High Five^TM cells grown in serum-free medium (Invitrogen) in upright roller bottles shaken 140 rpm in waterbaths at 27 °C. GalNAc-T7 was not purified by Mini-S as the yields from cationic chromatography were low due to its low pI (6.4). […] Galactosyl transferring activities of GalNAc-T1, -T2, and -T3, were assayed with a panel of acceptor peptides in standard reaction mixtures containing 100 μM UDP-Gal instead of UDP-GalNAc.

[3] = test system: GalNAc-T3; test: Inhibition of GalNAc-T3 activities with EA2 acceptor substrate; assay type: biochemical, human; conditions: for Activity in the presence of inhibitors: inhibitors 230 mM, EA2 acceptor
Protocol: as §2

[4] = test system: GalNAc-T4^459D or -T4^459H; test: Glycosylation independent activity of GalNAc-T4 wild-type and lectin mutant with naked peptides, MALDI-TOF; assay type: biochemical, human; conditions: naked peptides (PSGL-1); free sugars
Protocol: as §1
Quantification of purified proteins was done by Coomassie stained SDS-PAGE and titration of immunoreactivity with the monoclonal antibody, UH6(4G2) (8). […] Wild-type GalNAc-T4 and mutant GalNAc-T4, GalNAc-T4^459H, were analysed with unglycosylated peptides (represented by PSGL-1) or GalNAc glycosylated glycopeptides (represented by GalNAc3TAP25V21) in reactions of 25 µl containing 2.5 nmol acceptor (glyco)peptide, 40 nmol UDP-GalNAc, and 0.4 µg GalNAc-T4. […]

[5] = test system: GalNAc-T2; test: Direct binding to free GalNAc, conventional binding assays; set-up: species or system human
[6] = test system: GalNAc-T4; test: as above; set-up: species or system human
[7] = test system: GalNAc-T7; test: Inhibition of GalNAc-T7 activity with GalNAc2-3EA2 substrate; assay type: biochemical, human; conditions: for inhibition of the activity of GalNAc-T7 with GalNAc2-3EA2: 5 mM concentrations; for Activity in the presence of inhibitors: inhibitors 5 mM, GalNAc2-3EA2 substrate, without inhibitor 6.8
Protocol: Standard reaction mixtures (50 µl final volume) contained 25 mM cocadylate (pH 7.4), 10 mM MnCl2, 0.25% Triton X-100, 200 µM UDP-[^14C]-GalNAc (2,000 cpm/nmol) (Amer-sham), 200-500 µM acceptor peptides. Products were quantified by scintillation counting after chromatography on Dowex-1, octadecyl silica cartridges (Bakerbond), or HPLC (PC3.2/3 or mRPC C2/C18 SC2.1/10 Pharmacia, Smart System). […] Glycopeptides were purified on Supelclean LC-18 columns (1 ml, Supelco), and the number of GalNAc residues incorporated evaluated by MALDI-TOF mass spectrometry. The enzyme sources used were semipurified as previously described by successive sequential ion-exchange chromatographies on Amberlite (IRA95, Sigma) or DEAE Sephacel (Pharmacia), S-Sepharose Fast Flow (Pharmacia), and Mini-S™ (PC 3.2/3, Pharmacia) using the Smart System (Pharmacia) (28). Secreted GalNAc-T4 was obtained from a stably transfected CHO line (CHO/GalNA-T4/21A) (8) grown in roller bottles in HAMS F12 supplemented with 10 % Fetal Bovine Serum. The experiments illustrated in Fig. 1 was performed with recombinant secreted GalNAc-T4 obtained from a stably transfected CHO line (8). Experiments illustrated in Figs. 2 and 3 were performed with secreted GalNAc-T4 expressed in High Five cells grown in serum-free medium (8). Structural analysis of glycopeptides were performed by a combination of PFPA (pentafluoropropionic acid) hydrolysis and MALDI-TOF mass spectrometry as previously described (40). Secreted GalNAc-T7 was obtained from infected High Five™ cells grown in serum-free medium (Invitrogen) in upright roller bottles shaken 140 rpm in waterbaths at 27 °C. GalNAc-T7 was not purified by Mini-S as the yields from cationic chromatography were low due to its low pI (6.4).
GalNAc-T7 activity was analysed with GalNAc glycosylated glycopeptides (represented by GalNAc2-3EA2 (7)) in reactions of 25 µl containing 2.5 nmol acceptor (glyco)peptide, 40 nmol UDP-GalNAc, and purified GalNAc-T7. […] Further, analysis was performed with 10 mM α-D-GalNAc-1-benzyl, αGlcNAc-benzyl, and fully occupied GalNAc-glycopeptide, GalNAc6TAP25, at 5 mM.

[8] = […] free sugars, GalNAc3TAP25V21 glycopeptide substrate
[9] = donor UDP-Gal, without inhibitor 90
[10] = donor UDP-GalNAc, without inhibitor 340
[11] = donor UDP-Gal, without inhibitor 6.3
[12] = donor UDP-GalNAc, without inhibitor 34

SMILES: C[C@@H]1OC(O)[C@@H](O)[C@H](O)[C@@H]1O (stereo partly shown) [Fuc]
inhibition of the glycosylation dependent specificity of GalNAc-T4 [1, 8]: failed to show significant inhibition | Activity in the presence of inhibitors [2, 9]: 89 nmol/min/mL | Activity in the presence of inhibitors [2, 10]: 370 nmol/min/mL | Activity in the presence of inhibitors [3, 11]: 6.5 nmol/min/mL | Activity in the presence of inhibitors [3, 12]: 34 nmol/min/mL

inhibition of the galactosyltransferase activity with Muc2 substrate ([2]; donor UDP-Gal): selectively inhibited | inhibition of the galactosyltransferase activity of GalNAc-T3 ([3]; donor UDP-Gal): selectively inhibited | direct binding of GalNAc-T2 to free GalNAc [5]: could not detect direct binding | direct binding of GalNAc-T4 to free GalNAc [6]: could not detect direct binding
SMILES: CC(=O)N[C@H]1C(O)O[C@H](CO)[C@H](O)[C@@H]1O (stereo partly shown) [GalNAc, N-acetylgalactosamine]
inhibition of the glycosylation dependent specificity of GalNAc-T4 ([1]; 50 mM sugars (not shown)): approximately 50% | effect on the glycosylation independent activities of GalNAc-T4 [4]: no effect on the general catalytic function of the enzyme | Activity in the presence of inhibitors [2, 9]: 24 nmol/min/mL | Activity in the presence of inhibitors [2, 10]: 300 nmol/min/mL | Activity in the presence of inhibitors [3, 11]: 2.5 nmol/min/mL | Activity in the presence of inhibitors [3, 12]: 35 nmol/min/mL

SMILES: OC[C@H]1OC(O)[C@H](O)[C@@H](O)[C@H]1O (stereo partly shown) [Gal]
inhibition of the glycosylation dependent specificity of GalNAc-T4 [1, 8]: failed to show significant inhibition | Activity in the presence of inhibitors [2, 9]: 89 nmol/min/mL | Activity in the presence of inhibitors [2, 10]: 300 nmol/min/mL | Activity in the presence of inhibitors [3, 11]: 7.3 nmol/min/mL | Activity in the presence of inhibitors [3, 12]: 33 nmol/min/mL

SMILES: CC(=O)N[C@H]1[C@@H](OCc2ccccc2)O[C@H](CO)[C@H](O)[C@@H]1O[C@@H]1O[C@H](CO)[C@H](O)[C@H](O)[C@H]1O [Galβ1-3GaINAcα1-bz, Galβ1-3GalNAcα1-benzyl]
inhibition of GalNAc-T4 glycopeptide activity compared to GalNAc ([1]; concentration not given): neither Gal nor Galβ1-3GalNAcα1-benzyl produced significant inhibition | inhibition of the activity of GalNAc-T7 with GalNAc2-3EA2 [7]: significantly inhibited | Activity in the presence of inhibitors [7]: 4.5 nmol/min/mL

SMILES: CC(=O)N[C@H]1C(O)O[C@H](CO)[C@@H](O)[C@@H]1O (stereo partly shown) [GlcNAc]
inhibition of the glycosylation dependent specificity of GalNAc-T4 [1, 8]: failed to show significant inhibition | Activity in the presence of inhibitors [2, 9]: 68 nmol/min/mL | Activity in the presence of inhibitors [2, 10]: 310 nmol/min/mL | Activity in the presence of inhibitors [3, 11]: 7 nmol/min/mL | Activity in the presence of inhibitors [3, 12]: 32 nmol/min/mL

SMILES: CC(=O)N[C@H]1[C@@H](OCc2ccccc2)O[C@H](CO)[C@H](O)[C@@H]1O [bz-αGalNAc, α-D-GalNAc-1-benzyl]
inhibition of the activity of GalNAc-T7 with GalNAc2-3EA2 [7]: significantly inhibited | Activity in the presence of inhibitors [7]: 5.4 nmol/min/mL

SMILES: OC[C@H]1O[C@H](OCc2ccccc2)[C@@H](O)[C@@H](O)[C@@H]1O [bz-αMan]
Activity in the presence of inhibitors [7]: 6.7 nmol/min/mL

SMILES: OC[C@H]1O[C@@H](OCc2ccccc2)[C@H](O)[C@@H](O)[C@H]1O [bz-βGal]
inhibition of the activity of GalNAc-T7 with GalNAc2-3EA2 [7]: significantly inhibited | Activity in the presence of inhibitors [7]: 4.7 nmol/min/mL

SMILES: CC(=O)N[C@H]1[C@@H](OCc2ccccc2)O[C@H](CO)[C@@H](O)[C@@H]1O [αGlcNAc-benzyl]
inhibition of the glycosylation dependent specificity of GalNAc-T4 ([1]; 10 mM benzyl glycoside): did not inhibit catalytic activity
